Experiments:
Experiment in all cases: relative viability (nuclei count vs DMSO), 5 days (fraction); higher = more cells survive
[1] = system: BEN
Outline: (§1)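 Each reported value is a median over duplicate plates. It expresses relative viability: treated-well nuclei count divided by vehicle-well nuclei count. Lung cancer cell lines in 1536-well plates were dosed by pin tool a day after seeding, alone with one drug or with a fixed anchor-drug dose plus five library-drug doses (not always all listed) in √10 steps, and nuclei were counted after 5 days.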

[2] = system: COR-L23
Outline: as §1

[3] = system: HCC-366
Outline: as §1

[4] = system: LOU-NH91
Outline: as §1

[5] = system: LU99A
Outline: as §1

[6] = system: NCI-H1355
Outline: as §1

[7] = system: NCI-H1437
Outline: as §1

[8] = system: NCI-H1650
Outline: as §1

[9] = system: NCI-H1651
Outline: as §1

[10] = system: NCI-H1734
Outline: as §1

[11] = system: NCI-H1793
Outline: as §1

[12] = system: NCI-H1975
Outline: as §1

[13] = system: NCI-H2023
Outline: as §1

[14] = system: NCI-H2085
Outline: as §1

[15] = system: NCI-H2342
Outline: as §1

[16] = system: NCI-H358
Outline: as §1

[17] = system: NCI-H441
Outline: as §1

[18] = system: NCI-H460
Outline: as §1

[19] = system: NCI-H838
Outline: as §1

[20] = system: SK-LU-1
Outline: as §1

## O=c1cc(-c2cccc3c2Sc2ccccc2S3)oc(N2CCOCC2)c1 + Nc1ncn([C@H]2C[C@H](O)[C@@H](CO)O2)c(=O)n1 [Decitabine] (partner 2 µM)
[1]; first compound 0.08 µM
  relative viability: 0.649
[1]; first compound 0.253 µM
  relative viability: 0.699
[1]; first compound 0.8 µM
  relative viability: 0.69
[1]; first compound 2.53 µM
  relative viability: 0.586
[1]; first compound 8 µM
  relative viability: 0.943
[2]; first compound 0.08 µM
  relative viability: 0.429
[2]; first compound 0.253 µM
  relative viability: 0.513
[2]; first compound 0.8 µM
  relative viability: 0.386
[2]; first compound 2.53 µM
  relative viability: 0.508
[2]; first compound 8 µM
  relative viability: 0.588
[3]; first compound 0.08 µM
  relative viability: 0.324
[3]; first compound 0.253 µM
  relative viability: 0.486
[3]; first compound 0.8 µM
  relative viability: 0.363
[3]; first compound 2.53 µM
  relative viability: 0.273
[3]; first compound 8 µM
  relative viability: 0.33
[4]; first compound 0.08 µM
  relative viability: 0.777
[4]; first compound 0.253 µM
  relative viability: 0.894
[4]; first compound 0.8 µM
  relative viability: 0.784
[4]; first compound 2.53 µM
  relative viability: 0.777
[4]; first compound 8 µM
  relative viability: 0.844
[5]; first compound 0.08 µM
  relative viability: 0.897
[5]; first compound 0.253 µM
  relative viability: 0.996
[5]; first compound 0.8 µM
  relative viability: 1.04
[5]; first compound 2.53 µM
  relative viability: 0.866
[5]; first compound 8 µM
  relative viability: 1.18
[6]; first compound 0.08 µM
  relative viability: 0.374
[6]; first compound 0.253 µM
  relative viability: 0.382
[6]; first compound 0.8 µM
  relative viability: 0.342
[6]; first compound 2.53 µM
  relative viability: 0.373
[6]; first compound 8 µM
  relative viability: 0.331
[7]; first compound 0.08 µM
  relative viability: 0.573
[7]; first compound 0.253 µM
  relative viability: 0.708
[7]; first compound 0.8 µM
  relative viability: 0.628
[7]; first compound 2.53 µM
  relative viability: 0.524
[7]; first compound 8 µM
  relative viability: 0.578
[8]; first compound 0.08 µM
  relative viability: 0.415
[8]; first compound 0.253 µM
  relative viability: 0.511
[8]; first compound 0.8 µM
  relative viability: 0.416
[8]; first compound 2.53 µM
  relative viability: 0.365
[8]; first compound 8 µM
  relative viability: 0.374
[9]; first compound 0.08 µM
  relative viability: 0.575
[9]; first compound 0.253 µM
  relative viability: 0.766
[9]; first compound 0.8 µM
  relative viability: 0.617
[9]; first compound 2.53 µM
  relative viability: 0.555
[9]; first compound 8 µM
  relative viability: 0.628
[10]; first compound 0.08 µM
  relative viability: 0.452
[10]; first compound 0.253 µM
  relative viability: 0.574
[10]; first compound 0.8 µM
  relative viability: 0.528
[10]; first compound 8 µM
  relative viability: 0.512
[11]; first compound 0.08 µM
  relative viability: 0.536
[11]; first compound 0.253 µM
  relative viability: 0.614
[11]; first compound 0.8 µM
  relative viability: 0.478
[11]; first compound 2.53 µM
  relative viability: 0.487
[11]; first compound 8 µM
  relative viability: 0.476
[12]; first compound 0.08 µM
  relative viability: 0.366
[12]; first compound 0.253 µM
  relative viability: 0.36
[12]; first compound 0.8 µM
  relative viability: 0.348
[12]; first compound 2.53 µM
  relative viability: 0.38
[12]; first compound 8 µM
  relative viability: 0.381
[13]; first compound 0.08 µM
  relative viability: 0.214
[13]; first compound 0.253 µM
  relative viability: 0.276
[13]; first compound 0.8 µM
  relative viability: 0.25
[13]; first compound 2.53 µM
  relative viability: 0.245
[13]; first compound 8 µM
  relative viability: 0.229
[14]; first compound 0.08 µM
  relative viability: 0.532
[14]; first compound 0.253 µM
  relative viability: 0.578
[14]; first compound 0.8 µM
  relative viability: 0.52
[14]; first compound 2.53 µM
  relative viability: 0.519
[14]; first compound 8 µM
  relative viability: 0.537
[15]; first compound 0.08 µM
  relative viability: 0.662
[15]; first compound 0.253 µM
  relative viability: 0.794
[15]; first compound 0.8 µM
  relative viability: 0.734
[15]; first compound 2.53 µM
  relative viability: 0.721
[15]; first compound 8 µM
  relative viability: 0.77
[16]; first compound 0.08 µM
  relative viability: 0.199
[16]; first compound 0.253 µM
  relative viability: 0.205
[16]; first compound 0.8 µM
  relative viability: 0.2
[16]; first compound 2.53 µM
  relative viability: 0.25
[16]; first compound 8 µM
  relative viability: 0.214
[17]; first compound 0.08 µM
  relative viability: 0.221
[17]; first compound 0.253 µM
  relative viability: 0.232
[17]; first compound 0.8 µM
  relative viability: 0.223
[17]; first compound 2.53 µM
  relative viability: 0.257
[17]; first compound 8 µM
  relative viability: 0.265
[18]; first compound 0.08 µM
  relative viability: 0.476
[18]; first compound 0.253 µM
  relative viability: 0.659
[18]; first compound 0.8 µM
  relative viability: 0.462
[18]; first compound 2.53 µM
  relative viability: 0.468
[18]; first compound 8 µM
  relative viability: 0.669
[19]; first compound 0.08 µM
  relative viability: 0.471
[19]; first compound 0.253 µM
  relative viability: 0.519
[19]; first compound 0.8 µM
  relative viability: 0.457
[19]; first compound 2.53 µM
  relative viability: 0.452
[19]; first compound 8 µM
  relative viability: 0.497
[20]; first compound 0.08 µM
  relative viability: 0.678
[20]; first compound 0.253 µM
  relative viability: 0.813
[20]; first compound 0.8 µM
  relative viability: 0.755
[20]; first compound 2.53 µM
  relative viability: 0.643
[20]; first compound 8 µM
  relative viability: 0.648

Reference: the supplement of paper PMC10307832
